Experimental data reported in US7354904B2, “Bacteriocin inducer peptides” (priority 2005, dated 2008).

How the values were obtained:
[1] = tested on: Lactobacillus salivarius PVD-32; assay: Influence of signal peptide on bacteriocin OR-7 production, flask culture (fraction protein at 215 nm, activity by Spot Test against C. jejuni and S. enteritidis); assay type: cell-based; conditions: for Activity / Protein Concentration / Protein increase vs. Control / Specific Activity / mg protein/liter: 10% B-B
[2] = tested on: Lactobacillus salivarius PVD-32; assay: Bacteriocin OR-7 production with signal peptide under scaled up conditions (bioreactor); assay type: cell-based; conditions: V-61 reactor, 10% Brucella Broth, PVD-32, LWP252, peptide 0.2 mg, pH 6.9, 37° C., 14 hours
[3] = tested on: Streptococcus cricetus LWP 760; assay: Influence of signal peptide on bacteriocin 760 production, flask culture (fraction protein at 215 nm, activity by Spot Test against C. jejuni and S. enteritidis); assay type: cell-based
[4] = tested on: Enterococcus faecium LWP 50-52; assay: Influence of signal peptide on bacteriocin 50-52 production, flask culture (fraction protein at 215 nm, activity by spot-test against C. jejuni and S. enteritidis); assay type: cell-based
S. enteritidis = assay: Spot Test, antagonistic activity of isolated signal peptides; assay type: cell-based; conditions: isolated signal peptide
Protocol: (§1) The antagonistic activity of the bacteriocins produced when using the signal peptide and an inducer strain of bacteria against C. jejuni and S. enteritidis was assessed using a Spot Test. The steps included taking various concentrations of pure preparation (μg/ml) of the bacteriocin in approximately 10 microliters of volume plated onto blood-supplemented Campylobacter agar or Nutrient agar (MPA or Meta Peptone Agar) previously seeded with cells of target bacteria. Plates containing cultures of C. jejuni were grown at about 42° C., under microaerobic conditions. Plates containing S. enteritidis were grown at about 37° C. under aerobic conditions. Activity of the bacteriocin was expressed in arbitrary units (AU) per one milliliter of the preparation at which a visible zone of inhibition of the growth of culture appears (Henderson et al., Archives of Biochemistry and Biophysics, Volume 295, 5-12, 1992; herein incorporated by reference). Specific activity can also expressed as arbitrary units per milligram of pure bacteriocin.
(§2) Its activity was about 200 AU/ml and its molecular weight was about 2.5 kDa, as determined by SDS-PAGE electrophoresis. The isoelectric point (pI) was about 7.9 (FIGS. 1A and 1B).
(§3) Its molecular weight was about 3.1 kDa as measured by SDS-PAGE and the isoelectric point (pI) was about 8.1 (FIGS. 2A and 2B).
(§4) Its molecular weight was about 2.1 kDa as determined by SDS-PAGE electrophoresis and its isoelectric point was about 8.9 (FIGS. 3A and 3B).

C. jejuni = assay: as above; assay type: cell-based, Campylobacter jejuni; conditions: isolated signal peptide
Protocol: as §1, §2, §3, §4

[5] = Isoelectric point by isoelectrofocusing; assay type: physicochemical
Description: (§5) FIGS. 1A and 1B are photographs showing the direct detection of signal peptide and bacteriocin OR-7 after SDS-PAGE (A) and isoelectrofocusing (B). […] In FIG. 1A Lane 1-Molecular Mass Markers LMW Range 2,100-12,500 (Amersham Pharmacia Biotech): 2,100; 5,780; 8,400; 12,500 Da. […] Lane 3 contained pI standards (Protein Test Mixture, I Marker Proteins, Serva): 10.0, 9.2, 8.1, 6.9, 5.5, 4.3.
(§6) FIGS. 2A and 2B are photographs showing direct detection of signal peptide and bacteriocin 50-52 after SDS-PAGE (A) and isoelectrofocusing (B). […] Lane 3 contained pI standards (Protein Test Mixture, I Marker Proteins, Serva): 10.0, 8.1, 7.9, 6.4, 5.5, 4.3, 4.1, and 3.8.
(§7) FIGS. 3A and 3B are photographs showing the direct detection of signal peptide and bacteriocin 760 after SDS-PAGE(A) and isoelectrofocusing (B). […] Lane 3 contained pI standards (Protein Test Mixture, I Marker Proteins, Serva): 10.0, 8.1, 7.9, 6.4, 5.5, 4.3, 4.1, and 3.8.
At the end of 14 hours the supernatant from the cultures was placed into 500 ml centrifuge flasks with about one milliliter of regenerated Sepharose SP Fast Flow (v/v 500: 1). This was incubated for approximately 1 hour at room temperature with stirring. The suspension was then washed with about 100 ml of a 0.2 M TRIS-HCl buffer pH approximately 6.4. The bacteriocins were eluted by centrifugation with about 100 ml of approximately 0.2 M K2HPO4, pH of about 5.8 at about 7,000×g for approximately 10 minutes. Antagonistic activity of the bacteriocin fractions against C. jejuni and S. enteritidis was assessed using a Spot Test as described above. The level of purity of the bacteriocin fractions was determined by SDS-PAGE. The isoelectric points of the fractions were determined by isoelectric focusing. Concentrations of protein for all bacteriocin fractions were determined at 215 nm using a spectrophotometer.

Campylobacter jejuni = assay: Direct detection of antimicrobial activity: SDS-PAGE / isoelectrofocusing gel overlaid with Campylobacter jejuni; assay type: cell-based
Description: as §5, §6, §7

[6] = producer PVD32, no inducer, peptide 0.1 mg
[7] = producer PVD-32 + inducer LWP-252, peptide 0.001 mg
[8] = producer PVD-32 + inducer LWP-252, peptide 0.01 mg
[9] = producer PVD-32 + inducer LWP-252, peptide 0.1 mg
[10] = producer PVD-32, no inducer, peptide 0.001 mg
[11] = producer PVD-32, no inducer, peptide 0.01 mg
[12] = LWP 760 + LWP320, 0.1 mg PVD 32 peptide
[13] = LWP 50-52 + LWP 320, PVD-32 peptide 0.1 mg/ml

With “MVTKSLVLAWVVALLACGMVKGLT (listed as Lactobacillus salivarius) [PVD-32 Signal Peptide, signal peptide isolated from Lactobacillus salivarius PVD-32, stimulates bacteriocin OR-7 production]” as the molecule, how does the Activity [1, 6] read?
The Activity was 102,400 AU/ml.

What about the Protein Concentration [1, 6] of the same molecule?
Its Protein Concentration is 0.18 Mg/ml.

What about the “Protein increase vs. Control” value [1, 6] of the same molecule?
Its value is 0.9.

What about the “Specific Activity” value [1, 6] of the same molecule?
Its value is 568,888 AU/mg.

What about the mg protein/liter [1, 6] of the same molecule?
The mg protein/liter was 59.4 mg protein/liter.

What about the Activity [1, 7] of the same molecule?
Its Activity is 409,600 AU/ml.

And the Protein Concentration [1, 7]?
The Protein Concentration was 0.22 Mg/ml.

And the “Protein increase vs. Control” value [1, 7]?
Its value is 1.1.

What about the “Specific Activity” value [1, 7] of the same molecule?
The value was 1,861,818 AU/mg.

What about the mg protein/liter [1, 7] of the same molecule?
The mg protein/liter was 72.6 mg protein/liter.

And the Activity [1, 8]?
Its Activity is 1,638,400 AU/ml.

What about the Protein Concentration [1, 8] of the same molecule?
Its Protein Concentration is 0.65 Mg/ml.

And the “Protein increase vs. Control” value [1, 8]?
Its value is 3.25.

And the “Specific Activity” value [1, 8]?
The value was 2,520,615 AU/mg.

What about the mg protein/liter [1, 8] of the same molecule?
The mg protein/liter was 214.5 mg protein/liter.

And the mg protein/liter ([1]; producer PVD-32 + inducer LWP-252, peptide 0.01 mg, listed as signal peptide from PVD-32)?
Its mg protein/liter is “about 214.5 mg protein/liter”.

And the Activity [1, 9]?
Its Activity is 409,600 AU/ml.

And the Protein Concentration [1, 9]?
The Protein Concentration was 0.22 Mg/ml.

What about the “Protein increase vs. Control” value [1, 9] of the same molecule?
The value was 1.1.

And the “Specific Activity” value [1, 9]?
The value was 1,861,818 AU/mg.

And the mg protein/liter [1, 9]?
Its mg protein/liter is 72.6 mg protein/liter.

What about the Activity [1, 10] of the same molecule?
Its Activity is 204,800 AU/ml.

And the Protein Concentration [1, 10]?
Its Protein Concentration is 0.2 Mg/ml.

What about the “Protein increase vs. Control” value [1, 10] of the same molecule?
The value was 1.

And the “Specific Activity” value [1, 10]?
The value was 1,024,000 AU/mg.

And the mg protein/liter [1, 10]?
Its mg protein/liter is 66 mg protein/liter.

What about the Activity [1, 11] of the same molecule?
Its Activity is 204,800 AU/ml.

And the Protein Concentration [1, 11]?
Its Protein Concentration is 0.2 Mg/ml.

What about the “Protein increase vs. Control” value [1, 11] of the same molecule?
The value was 1.

What about the “Specific Activity” value [1, 11] of the same molecule?
The value was 1,024,000 AU/mg.

What about the mg protein/liter [1, 11] of the same molecule?
Its mg protein/liter is 66 mg protein/liter.

What about the “production of bacteriocin OR-7 per liter of culture fluid” value ([1]; simultaneous culture of PVD-32 and LWP-252 with signal peptide (flask and bioreactor)) of the same molecule?
Its value is 214-225 milligrams.

And the Activity [2]?
Its Activity is 3,276,800 AU/ml.

And the “Amount of Protein produced in One liter” value [2]?
The value was 225 mg.

What about the “Concentration of Protein” value [2] of the same molecule?
The value was 1.5 mg/mL.

And the “Increase in amount of protein vs. control” value [2]?
Its value is 3.

What about the “Specific Activity” value [2] of the same molecule?
Its value is 2,184,533 AU/mg.

And the Activity [3, 12]?
The Activity was 1,638,840 AU/ml.

And the “Increase in amount of protein vs. control” value [3, 12]?
Its value is 1.

What about the “Protein Concentration” value [3, 12] of the same molecule?
The value was 0.30 mg/mL.

And the “Protein Produced from 1 liter Culture Fluid” value [3, 12]?
The value was 99 mg.

What about the “Specific Activity” value [3, 12] of the same molecule?
The value was 5,462,666 Au/mg.

And the “yield of bacteriocin 760 versus control” value ([3]; signal peptide of another strain added to LWP 760 + LWP 320)?
Its value is “did not increase”.

And the Activity [4, 13]?
The Activity was 819,200 AU/ml.

And the “Protein Concentration” value [4, 13]?
The value was 0.25 mg/mL.

What about the “Protein increase vs. Control” value [4, 13] of the same molecule?
The value was 1.

What about the “Specific Activity” value [4, 13] of the same molecule?
The value was 3,276,800 AU/mg.

And the mg protein/liter [4, 13]?
Its mg protein/liter is 82.5 mg protein/liter.

And the “yield of bacteriocin 50-52 versus the control” value ([4]; signal peptide of another strain added to LWP 50-52 + LWP 320)?
Its value is “did not increase”.

What about the Activity (S. enteritidis) of the same molecule?
Its Activity is “about 200 AU/ml”.

And the antagonistic activity (S. enteritidis)?
The antagonistic activity was “weak antagonistic activity”.

And the Activity (C. jejuni)?
Its Activity is “about 200 AU/ml”.

And the antagonistic activity (C. jejuni)?
The antagonistic activity was “weak antagonistic activity”.

And the “isoelectric point (pI)” value [5]?
The value was “about 7.9”.

With “KTYYGTNGVHCTKNSLWGKVRLKNMKYDQNTTYMGRLQDILLGWATGAFGKTH (listed as Lactobacillus salivarius) [bacteriocin OR-7, bacteriocin produced by Lactobacillus salivarius PVD-32]” as the molecule, how does the “isoelectric point (pI)” value [5] read?
Its value is “about 8.4”.

And the “antimicrobial activity of band (zone of growth inhibition)” value (Campylobacter jejuni)?
Its value is “corresponds to the antimicrobial activity”.

Which “isoelectric point (pI)” value [5] does the source give for “TTKNYGNGVCNSVNWCQCGNVWASCNLATGCAAWLCKLA (listed as Enterococcus faecium) [bacteriocin 50-52, bacteriocin produced by Enterococcus faecium LWP 50-52]” here?
Its value is “about 8.4”.

What about the “antimicrobial activity of band (zone of growth inhibition)” value (Campylobacter jejuni) of the same molecule?
The value was “corresponds to the antimicrobial activity”.

B1: NRWYCNSAAGGVGGAAVCGLAGYVGEAKENIAGEVRKGWGMAGGFTHNKACKSFPGSGWASG (protein, listed as Streptococcus cricetus)
chain: NRWYCNSAAGGVGGAAVCGLAGYVGEAKENIAGEVRKGWGMAGGFTHNKACKSFPGSGWASG
notes: bacteriocin produced by Streptococcus cricetus LWP 760
For B1, which “isoelectric point (pI)” value [5] is on record?
Its value is “about 9.5”.

And the “antimicrobial activity of band (zone of growth inhibition)” value (Campylobacter jejuni)?
Its value is “corresponds to the antimicrobial activity”.
